Reference: PubChem BioAssay AID449762 (Southern Research Specialized Biocontainment Screening …, 2010)
Results filed as inconclusive are left out.

Test system: M. tuberculosis H37Rv growth inhibition, 7H9 media
Test: M. tuberculosis growth inhibition, HTS (AID 449762);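 also: bacterial growth assessed after seven days of incubation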
Conditions: for IC90: measured here: IC90 growth inhibition

CC1=NN(C(=O)c2ccc(Br)cc2)C(O)(c2ccccc2)C1 (configuration not stated)
IC50: 48.1 µM | IC90: 65.6 µM

O=C(CNC(=O)c1ccco1)OCc1ccc(C(=O)Oc2ccccc2)cc1
IC50: 4.52 µM | IC90: 16.2 µM

CCOc1ccc(/C=N/Nc2ccc(Cl)nn2)c(O)c1
IC50: 4.49 µM | IC90: 7.48 µM

CCOC(=O)COc1cc(O)c2c(=O)cc(-c3ccccc3)oc2c1
IC50: 0.68 µM | IC90: 2.33 µM

O=[N+]([O-])c1ccc(-c2nc(-c3cccs3)c(-c3cccs3)[nH]2)cc1
IC50: 21.7 µM | IC90: > 100 µM

COc1ccc(CNC(=O)c2c(N)n(CCCN3CCOCC3)c3nc4ccccc4nc23)cc1
IC50: 94 µM | IC90: > 100 µM

Cc1cc(NC(=O)c2cc(-c3ccncc3)nc3c(C)cccc23)no1
IC50: 46.5 µM | IC90: > 100 µM

CCO[C@H]1OC(C(=O)NCc2nc3ccccc3[nH]2)=C[C@@H](c2csc3ccccc23)[C@@H]1CCCO
IC50: 44.8 µM | IC90: 50.5 µM

O=C(C=C=Nc1ccccc1)C(=O)N=C=Cc1ccccc1
IC50: 5.31 µM | IC90: 13.1 µM

O=C(OCC(=O)N1CCCCC1)c1cc2ccccc2cc1O
IC50: 5 µM | IC90: 9.61 µM

Cn1nc(-c2ccccn2)nc2c(=O)n(C)c(=O)nc1-2
IC50: 9.04 µM | IC90: 14.5 µM

COc1ccc(C)c2sc(N(CCN(C)C)C(=O)/C=C/c3cccs3)nc12
IC50: 25.2 µM | IC90: 35.9 µM

CCCOc1cccc(C(=O)NC(=S)Nc2ccc(N3CCN(C)CC3)cc2)c1
IC90: > 100 µM

CC(Oc1ccc(F)cc1)C(=O)Nc1sc2c(c1C(=O)NCc1cccnc1)CCCC2 (configuration not stated)
IC50: 45 µM | IC90: 52.5 µM

COc1ccc(NS(=O)(=O)c2ccc3nc(COc4cccc5ccccc45)[nH]c3c2)cc1
IC50: 63.2 µM | IC90: > 100 µM

CC(C)Cc1ccc(C(C)C(N)=NCCc2ccccc2)cc1 (configuration not stated)
IC50: 22.6 µM | IC90: 25.8 µM

Cc1cc(-c2cc(-c3ccccc3)on2)nc(NC2CCCC2)n1
IC50: 45.8 µM | IC90: 53.9 µM

CSc1ccccc1OCc1cc(C(=O)N2CCC(Oc3cccnc3)CC2)no1
IC50: 24 µM | IC90: 27.6 µM

Cc1ccc(NC(=O)COc2ccc(-n3ccnc3)cc2)cc1Cl
IC50: 24.8 µM | IC90: 28.8 µM

Cc1cccc(NS(=O)(=O)c2ccc(C(=O)N3CCN(c4ccccc4O)CC3)cc2)c1C
IC50: 75.3 µM | IC90: > 100 µM

CCOC(=O)c1csc(-c2snnc2C)n1
IC50: 21.4 µM | IC90: 52 µM

COc1cc2cnc(-c3ccccc3)c(-c3ccc(C(F)(F)F)cc3)c2cc1OC
IC50: 44 µM | IC90: > 50 µM

COc1ccc(-c2nsc3c(N4CCCCC4C)ncnc23)cc1 (configuration not stated)
IC50: 41.2 µM | IC90: 56.8 µM

Cc1ccc(Cl)cc1N1CCN(CC(=O)NC2CCCc3ccccc32)CC1 (configuration not stated)
IC50: 31.5 µM | IC90: 46.1 µM

CCC(C)c1ccc2oc(-c3ccc(NC(=O)c4ncn[nH]4)cc3)nc2c1 (configuration not stated)
IC50: 1.59 µM | IC90: 7.52 µM

CC1=NN(c2ccccc2)C(=O)/C1=C\c1c(C)[nH]n(-c2ccccc2)c1=O
IC50: 18.2 µM | IC90: 46 µM

CSCCC(=O)N1CCCC(CNC(=O)c2ccc(-c3ccccc3)cc2)C1 (configuration not stated)
IC50: 39.1 µM | IC90: 87.8 µM

NC(=O)c1cccn1-c1ncc(C(F)(F)F)cc1Cl
IC50: 6.8 µM | IC90: 16.6 µM

CCc1cc(C(=O)Nc2nc(-c3ccccn3)cs2)sc1C
IC50: 1.26 µM | IC90: 15.3 µM

O=C(/C=C/c1cc(Br)ccc1O)c1ccco1
IC50: 7.96 µM | IC90: 13.4 µM

O=C(CCl)NCc1cc(-c2ccc(Cl)cc2)no1
IC50: < 0.2 µM | IC90: 1.33 µM

COc1ccccc1N1CCN(/N=C/C(Cl)=C/c2ccccc2)CC1
IC50: 52.7 µM | IC90: > 100 µM

CCCCC(CC)CN=C(N)NC(N)=NCCCCCCN=C(N)NC(N)=NCC(CC)CCCC (configuration not stated)
IC50: 3.61 µM | IC90: 4.76 µM

CCN1CCN(Cc2ccc(NC(=O)c3ccc(C)c(/C=C/c4cnc(Nc5cc(N6CCNCC6)nc(C)n5)cn4)c3)cc2C(F)(F)F)CC1
IC50: 35.1 µM | IC90: 57.9 µM

Cn1nc([N+](=O)[O-])nc1Sc1ccc(C(C)(C)C)cc1
IC50: 6.13 µM | IC90: 7.62 µM

Cc1ccc(N2CCN(C(=O)c3cn(CC4CCCCC4)nn3)C(C)C2)cc1 (configuration not stated)
IC50: 4.1 µM | IC90: 12.4 µM

Oc1c(C(c2ccccc2Cl)N2CCCC2)ccc2cccnc12 (configuration not stated)
IC50: 14.1 µM | IC90: 31.1 µM

O=C1Nc2ccc(Br)cc2/C1=C/C(=O)c1ccc2c(c1)OCO2
IC50: 7.71 µM | IC90: 18.1 µM

CC[C@H](C)[C@@H]1O[C@@]2(C=CC1C)CC1C[C@@H](CC=C(C)C(O[C@H]3CC(OC)C(O[C@H]4CC(OC)C(O)C(C)O4)C(C)O3)C(C)C=CC=C3CO[C@@H]4C(O)C(C)=C[C@@H](C(=O)O1)[C@]34O)O2 (some centres not stated)
IC50: 12.7 µM | IC90: 18.1 µM

COc1ccc(C[C@H](N)C(=O)N[C@H]2[C@@H](O)[C@H](n3cnc4c(N(C)C)ncnc43)O[C@@H]2CO)cc1
IC50: 3.14 µM | IC90: 3.54 µM

CC1(C)OC(=O)C(=Cc2ccc[nH]2)C(=O)O1
IC50: < 0.2 µM | IC90: 24.1 µM

CCN(CC)CCOC(=O)c1ccc(N/C=C(/C#N)c2nc(-c3ccc4c(c3)OCO4)cs2)cc1
IC50: 28.4 µM | IC90: 53.3 µM

c1cc(Nc2cccc3nccnc23)c2nccnc2c1
IC50: 9.75 µM | IC90: 23.2 µM

O=C(c1ccccc1)c1nn(-c2ccc(Cl)cc2)c(=O)cc1C(F)(F)F
IC50: 12 µM | IC90: 19.6 µM

COc1ccc(SC[C@H](Cc2ccccc2)N2CCN(CCc3ccccc3)CCC2=O)cc1
IC50: 36.8 µM | IC90: 46.7 µM

COc1ccc(-c2ccc(-c3noc(C(C)C)n3)c(OC)n2)cc1
IC50: 10.7 µM | IC90: 26.7 µM

Cc1ccc(C)c(N/C(N)=N/c2nc(C)cc(C)n2)c1
IC50: 5.87 µM | IC90: 6.72 µM

CCCCN1C(=O)C2(NNc3ccccc3O2)c2ccccc21 (configuration not stated)
IC50: 57.5 µM | IC90: > 100 µM

CN1/C(=C/C(=O)c2nc(S(C)(=O)=O)ncc2Cl)C(C)(C)c2ccccc21
IC50: 3.21 µM | IC90: 10.7 µM

O=C(OCC(=O)N1CCN(C(=O)c2ccco2)CC1)c1cc(-c2cccc(Br)c2)nc2ccccc12
IC50: 95.2 µM | IC90: > 100 µM

Cc1cc(C(=O)CCl)c(C)n1-c1cccc([N+](=O)[O-])c1
IC50: < 0.2 µM | IC90: 1.54 µM

CC(C)(C)c1ccc(-c2nc(-c3ccncc3)no2)cc1
IC50: 9.16 µM | IC90: 33.6 µM

CCc1cc(C(=O)Nc2ccc(C)cc2Br)cs1
IC50: 30 µM | IC90: > 100 µM

Cc1cccc(C(=O)OCC(=O)N2CCc3ccccc3C2)c1O
IC50: 46.3 µM | IC90: > 100 µM

Cc1ccc(-c2nc3c(c(=O)c4ccccc4n3C)c(=O)n2Cc2ccco2)cc1
IC50: 11.4 µM | IC90: 36.3 µM

O=C(Cc1ccc(Nc2nc3ccc(Br)cc3[nH]2)cc1)NCCc1cccs1
IC50: 23.5 µM | IC90: 31.2 µM

O=C(Nc1cccc(-c2csc(Nc3ccc(Cl)cc3)n2)c1)c1cccc(C(F)(F)F)c1
IC50: 27 µM | IC90: > 100 µM

CCOc1ccc(-c2[nH]ncc2-c2ccc(Cl)cc2)c(O)c1
IC50: 46.8 µM | IC90: 66.5 µM

COc1ccc(C(=O)Cn2nc(CNc3ccc(Br)cc3)[n+]3c2CCCCC3)cc1
IC50: 9.77 µM | IC90: 13.7 µM

CSc1nsc(SCC(=O)N2CCCCC2)n1
IC50: 5.47 µM | IC90: 8.81 µM

C[n+]1c(-c2ccccc2)cc(CCCCc2cc(-c3ccccc3)[n+](C)c(-c3ccccc3)c2)cc1-c1ccccc1
IC50: 17.3 µM | IC90: 21.7 µM

Cc1cc(N2CCC(C)CC2)nc(-n2nc(C)cc2C)n1
IC50: < 0.2 µM | IC90: 5.47 µM

O=C(CCS(=O)(=O)c1ccc(F)cc1)Nc1nc(-c2ccccn2)cs1
IC50: 4.5 µM | IC90: 17.1 µM

Cn1ccnc1C(=O)C1CCCN(Cc2cn[nH]c2-c2ccc(-c3ccccc3)cc2)C1 (configuration not stated)
IC50: 76 µM | IC90: 91.7 µM

O=C(O)Cc1c[nH]c2ccc(O)cc12
IC90: > 100 µM

COc1ccc(CCNc2nc(N3CCCCC3)nc(N3CCCCC3)n2)cc1OC
IC50: 17.3 µM | IC90: 22.5 µM

O=C(CNC(=O)c1ccc(Cl)cc1)c1ccc(Cl)cc1
IC50: 96.6 µM | IC90: > 100 µM

CCOC(=O)C(/C=C(\C#N)C(=O)OCC)=C(/N)N1CCN(c2ccc(Cl)cc2)CC1
IC50: 18.5 µM | IC90: > 100 µM

COc1ccccc1OCCN1CSC(=S)N(C)C1
IC50: 6.34 µM | IC90: 15.3 µM

N#Cc1nccnc1S(=O)(=O)c1cccs1
IC50: 40.6 µM | IC90: 61.1 µM

CCC(C)NC(=O)c1cn(CC)c2cc(N3CCN(C(=O)c4ccco4)CC3)c(F)cc2c1=O (configuration not stated)
IC50: 9.33 µM | IC90: 30.9 µM

S=C(Nc1ccc(Cl)cc1)Nc1cccc2cnccc12
IC50: 4.42 µM | IC90: 5.24 µM

CCCOc1ccc(-c2cnc(SCC(N)=O)nc2N)cc1
IC50: 12.1 µM | IC90: 50.2 µM

CCCCNC(=O)Nc1nnc(-c2ccc(OCC)cc2)o1
IC90: > 100 µM

O=C1C(Br)=Cc2cccc3cccc1c23
IC50: < 0.2 µM | IC90: < 0.2 µM

CC(/C=N/n1c(C2CCCCC2)n[nH]c1=S)=C\c1ccccc1
IC50: 48.7 µM | IC90: 54.3 µM

Nc1ccc(N=Nc2ccccc2)c(N)n1
IC90: > 100 µM

Cc1ccc2c(c1)c(/C=C/c1cc[n+](C)cc1)c(C)n2C
IC50: 5.13 µM | IC90: 6.8 µM

O=C(COC(=O)C1CC2CCCC(C1)C2=O)NNC(=O)c1ccccc1F (configuration not stated)
IC50: 9.47 µM | IC90: > 100 µM

COc1cc(/C=C2\C(=O)N(c3ccc(S(N)(=O)=O)cc3)N=C2C)ccc1OC(=O)c1ccco1
IC50: 16.2 µM | IC90: 22.6 µM

CC(C)(C)OC(=O)NNC(=S)NC1CCCCC1
IC50: 21.2 µM | IC90: 23.8 µM

CCOC(=O)C1CCN(c2cc3c(cc2NC(=O)c2ccccc2Cl)n(C)c(=O)n3C)CC1
IC50: 46.6 µM | IC90: 53.9 µM

CCOc1ccc(NC(=S)Nc2cc(-c3ccccc3)[nH]n2)cc1
IC50: 92.6 µM | IC90: > 100 µM

Cc1ccc(CNc2ccc3c(c2)ncn3C(C)(C)C)cc1
IC50: 7.41 µM | IC90: 14.8 µM

COC(=O)CC(=O)N1CCN(c2ccc(Cl)c(Cl)c2)CC1
IC50: 20 µM | IC90: 55 µM

CSc1cccc(CNC(=O)C2CCC(=O)N(Cc3cccc(C(F)(F)F)c3)C2)c1 (configuration not stated)
IC50: 26.6 µM | IC90: 30.6 µM

CSc1ccc(CNC(=O)C2Cc3cc(S(=O)(=O)N4CCCCC4)ccc3N2C(C)=O)cc1 (configuration not stated)
IC50: 46.4 µM | IC90: > 50 µM

CCOC(=O)c1cc(-c2ccccc2)nc2c1c(C)nn2-c1ccccn1
IC50: 2.97 µM | IC90: 27.2 µM
